Assay results published in patent US9975853B2, “Tetrahydroisoquinolinone derivatives and their use in the inhibition of the HSP70 protein” (Julius-Maximilians-Universitaet Wuerzburg, priority 2014, dated 2018).
Where two headings read alike, the source gives them in different places. Peptide text beside a SMILES is read from it. * marks the point of attachment. Cbz = O=C(OCc1ccccc1)*; CH2F = FC*

Experiments:
caspases 9 and 3 = experiment: Apoptosis assay: cleavage and activation of caspases 9 and 3, PARP cleavage in INA-6 cells (Western blot); format: cell-based, human; conditions: INA-6, Z-VAD-FMK 50 μM
Procedure: Apoptosis Assays. Hsp70-dependent prevention of apoptosis was investigated by analyses of the apoptosis-inducing factors (AIF) and of the caspases 9 and 3 in INA-6 cells. INA-6 cells were treated with 0.6 μM of compound trans-7b for 8 hours prior to analyze nuclear translocation of AIF. Staining of the nuclear protein lamin A was used as a loading control. […] Analysis of cleavage of the bona fide caspase substrate PARP served as a control for caspase activation. Co-treatment with the pan-caspase inhibitor Z-VAD-FMK (50 μM) was employed as another specificity control.
In FIG. 2A Western blot analyses of caspases 9 and 3, and the caspase substrate PARP (upper panel), and viability analyses (lower panel) of INA-6 MM cells upon treatment with trans-7b for 24 hours are shown. […] Lysates were cleared by centrifugation, measured by quantitative protein assay (Bio-Rad, München, Germany) and subjected to SDS gel electrophoresis. […] INA-6 cells were washed in PBS, incubated for 15 minutes in 100 ml binding buffer (10 mM HEPES/NaOH, pH 7.4, 140 mM NaCl, 2.5 mM CaCl2) containing 2.5 mL annexin V-FITC mix and 1 mg/ml PI and analyzed by flow cytometry (FACSCalibur/CELLQuest; Becton Dickinson, Heidelberg, Germany). […] Raw data of three independent experiments have been calculated to establish means, standard deviation and dose-effect curves of trans-7b.

INA-6 = experiment: Cell viability assay (annexin V-FITC/propidium iodide, flow cytometry) in INA-6 multiple myeloma cells; format: cell-based, human; conditions: for EC50: INA-6 multiple myeloma cells, 72 hours of treatment, viable cell fraction, mean of at least three determinations, read-out: INA-6 EC50(±sdv)
Procedure: The effect of pharmacological Hsp70 inhibition on cell viability was analyzed after 72 hours of treatment in both non-malignant (mononuclear cells from the peripheral blood) and malignant lymphocytes (multiple myeloma cells). The mononuclear cells were separated from the peripheral blood of healthy donors by Ficoll-Hypaque density gradient centrifugation. The human cell line INA-6 represents a well-established model for multiple myeloma. The percentage of viable and apoptotic cell fractions was assessed using an annexin V-FITC/propidium iodide (PI) staining kit (Bender MedSystems, Vienna, Austria) according to manufacturer's instructions. In brief, cells were washed in PBS, incubated for 10 min in 100 ml binding buffer (10 mM HEPES/NaOH, pH 7.4, 140 mM NaCl, 2.5 mM CaCl2) containing 2.5 ml annexin V-FITC mix and 1 mg/ml propidium iodide (PI), subsequently diluted with 100 ml binding buffer and analyzed by flow cytometry (FACSCalibur/CELLQuest; Becton Dickinson, Heidelberg, Germany). Whereas viable cells are negative for both, annexin V-FITC and PI, early apoptotic cells show a positive annexin V-FITC staining, and cells in a late apoptotic stage which lose their membrane integrity additionally incorporate DNA-binding PI. To establish kill curves, concentrations of the tested compounds were titrated, and the measured viable cell fractions were further analyzed using the Prism Calculation Software (GraphPad Software Inc., La Jolla, USA).
In FIG. 2A Western blot analyses of caspases 9 and 3, and the caspase substrate PARP (upper panel), and viability analyses (lower panel) of INA-6 MM cells upon treatment with trans-7b for 24 hours are shown. INA-6 cells were either incubated with DMSO (as a solvent control) or with 0.6 μM of trans-7b, and additionally incubated either with DMSO or the pan-caspase inhibitor Z-VAD-FMK prior to analyses by Western or viability assessment (without Z-VAD-FMK co-treatment) by Annexin V/propidum iodide double staining. For Western analyses INA-6 cell pellets were dissolved in lysis buffer (20 mM HEPES (pH 7.9), 350 mM NaCl, 1 mM MgCl2, 0.5 mM EDTA, 0.1 mM EGTA, 1% NP40, 0.5 mM dithiothreiol (DTT), 1 mM Na3VO4, 0.1 mM PMSF and 1 μg/ml aprotinin). Lysates were cleared by centrifugation, measured by quantitative protein assay (Bio-Rad, München, Germany) and subjected to SDS gel electrophoresis. Proteins were transferred onto nitrocellulose membranes (Schleicher & Schuell, Dassel, Germany), incubated with antibodies specific for caspase 9, caspase 3 or PARP (Cell Signaling Technology, Frankfurt a.Main, Germany) according to standard procedures and visualized with secondary anti-rabbit horseradish peroxidase (HRP)-conjugated antibodies using an enhanced chemoluminescence detection system (ECL, Amersham, Freiburg, Germany). […] Annexin V/propidium iodide (PI) staining was performed using a fluorescein isothiocyanate (FITC) conjugated recombinant human annexin/propidium iodide kit (BenderMedSystems, Vienna, Austria) according to the manufacturer's instructions. INA-6 cells were washed in PBS, incubated for 15 minutes in 100 ml binding buffer (10 mM HEPES/NaOH, pH 7.4, 140 mM NaCl, 2.5 mM CaCl2) containing 2.5 mL annexin V-FITC mix and 1 mg/ml PI and analyzed by flow cytometry (FACSCalibur/CELLQuest; Becton Dickinson, Heidelberg, Germany). Whereas early apoptosis is characterized by positive annexin V-FITC staining reaction, cells in a late apoptotic stage lose their membrane integrity and additionally incorporate PI. Thus, the fraction of viable cells remains negative for both annexin V-FITC and PI. […] Based on the above described experiments also viability analyses of INA-6 in comparison with non-malignant PBMCs were performed choosing a longer incubation time (72 hours) as shown in FIG. 2B or C. Raw data of three independent experiments have been calculated to establish means, standard deviation and dose-effect curves of trans-7b.

| SMILES | caspase activation and PARP cleavage under co-treatment with trans-7b (caspases 9 and 3) | trans-7b-induced induction of apoptosis under co-incubation (INA-6; INA-6, Z-VAD-FMK 50 μM with trans-7b 0.6 μM) | melting point | EC50 (INA-6) | EC50 (INA-6; Homo sapiens, INA-6, 72 h) |
| --- | --- | --- | --- | --- | --- |
| COC(=O)C[C@H](NC(=O)[C@H](C)NC(=O)[C@@H](NC(=O)OCc1ccccc1)C(C)C)C(=O)CF [Z-VAD-FMK, reference compound] (Cbz-Val-Ala-Asp(OMe)-CH2F) | sufficiently inhibited | largely prevented | – | – | – |
| COc1ccc(N2C(=O)c3ccccc3C(C(=O)O)C2c2ccccc2)cc1 (stereo not drawn) [trans-5c, trans-2-(4-Methoxyphenyl)-1-oxo-3-phenyl-1,2,3,4-tetrahydroisoquinoline-4-carboxylic acid] | – | – | 106 to 118 °C | 57 µM | – |
| COc1ccc(C2C(C(=O)O)c3ccccc3C(=O)N2c2ccccc2)cc1 (stereo not drawn) [trans-5b, trans-3-(4-Methoxyphenyl)-1-oxo-2-phenyl-1,2,3,4-tetrahydroisoquinoline-4-carboxylic acid] | – | – | 171 to 173 °C | – | 1.3 µM |
| COc1ccc(C2C(C(=O)O)c3ccccc3C(=O)N2c2ccc(OC)cc2)cc1 (stereo not drawn) [cis-5d, cis-2,3-Bis(4-methoxyphenyl)-1-oxo-1,2,3,4-tetrahydroisoquinoline-4-carboxylic acid] | – | – | 232 to 233 °C | > 100 µM | – |
| COc1ccc(C2C(C(=O)O)c3ccccc3C(=O)N2c2ccc(OC)cc2)cc1 (stereo not drawn) [trans-5d, trans-2,3-Bis(4-methoxyphenyl)-1-oxo-1,2,3,4-tetrahydroisoquinoline-4-carboxylic acid] | – | – | 201 to 203 °C | 10.1 µM | – |
| O=C(O)C1c2ccccc2C(=O)N(c2ccccc2)C1c1ccccc1 (stereo not drawn) [trans-5a, trans-2,3-Diphenyl-1-oxo-1,2,3,4-tetrahydroisoquinoline-4-carboxylic acid] | – | – | 226 to 229 °C | – | 6.9 µM |
